This note sets out measurements from patent US8669247B2, “2,5-disubstituted arylsulfonamide CCR3 antagonists” (Axikin Pharmaceuticals, Inc., priority 2009, dated 2014).

The target in the assay is T1, CCR3 receptor (UniProt P51677).
T1 sequence (P51677 1-355): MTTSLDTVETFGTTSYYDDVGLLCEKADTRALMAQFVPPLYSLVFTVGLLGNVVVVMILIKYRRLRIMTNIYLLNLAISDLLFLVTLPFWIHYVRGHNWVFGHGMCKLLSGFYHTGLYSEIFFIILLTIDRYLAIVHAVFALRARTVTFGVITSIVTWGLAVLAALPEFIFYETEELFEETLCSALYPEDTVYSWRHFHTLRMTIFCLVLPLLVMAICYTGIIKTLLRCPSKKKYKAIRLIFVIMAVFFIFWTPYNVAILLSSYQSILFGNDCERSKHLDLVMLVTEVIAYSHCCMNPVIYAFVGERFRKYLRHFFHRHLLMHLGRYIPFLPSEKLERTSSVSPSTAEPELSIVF
Put plainly: CCR3 Receptor Binding Assay ([125I]-labeled human eotaxin/CCL11 displacement on cells). The method, then:
Cells were washed once with PBS and resuspended in a binding buffer (25 mM HEPES pH 7.6, 5 mM MgCl2, 1 mM CaCl2, 0.5% BSA, 0.1% NaN3), […] of cell suspension (2×10^5 cells/well) and 0.1 nM [^125I]-labeled human eotaxin/CCL11 (2000 Ci/mmol specific activity) were mixed in a 96-well U-bottom polypropylene plate, and incubated for 60 min at room temperature for the binding reaction. The cell suspension was then transferred to a filtration plate (#MAFB, Millipore), and washed 3 times with the binding buffer containing 0.5 M NaCl, scintillant added, and the radioactivity was counted on a TopCount (Packard). For the determination of non-specific binding, the cell suspension and [^125I]-labeled human eotaxin/CCL11 were incubated in the presence of 500 nM of unlabeled human eotaxin/CCL11. See, lino et al., “Molecular cloning and functional characterization of cynomolgus monkey (Macaca fascicularis) CC chemokine receptor, CCR3,” Cytokine 2002, 19, 276-286.

The mark [1] stands for this setting: Free (free form of the compound).
[2] abbreviates: HCl: hydrochloric acid salt of the corresponding compound.

SMILES strings stand for the structures.

On to `Cc1ccc(C)c(Oc2ccc(C#N)cc2S(=O)(=O)N2CCNCC2)c1` [Compound 51, 4-(2,5-Dimethylphenoxy)-3-(piperazin-1-ylsulfonyl)benzonitrile], for which the Ki is, setting by setting: under setting [1], 100 to 500 nM; under setting [2], 25 to 100 nM.
In the case of `CC1CN(S(=O)(=O)c2cc(C#N)ccc2Oc2cc(F)ccc2F)CC(C)N1` (stereo not drawn) [Compound 53, 4-(2,5-Difluorophenoxy)-3-(3,5-dimethylpiperazin-1-ylsulfonyl)benzonitrile], under setting [1], the Ki lay in the range of 25 to 100 nM.
For `CC(C)N1CCN(S(=O)(=O)c2cc(C#N)ccc2Oc2cc(F)ccc2F)CC1` [Compound 54, 4-(2,5-Difluorophenoxy)-3-(4-isopropylpiperazin-1-ylsulfonyl)benzonitrile], the inhibition constant Ki runs as follows: under setting [1], 100 to 500 nM; under setting [2], 25 to 100 nM.
As for `CCC(CC)N1CCN(S(=O)(=O)c2cc(C#N)ccc2Oc2cc(F)ccc2F)CC1` [Compound 55, 4-(2,5-Difluorophenoxy)-3-(4-(pentan-3-yl)piperazin-1-ylsulfonyl)benzonitrile], the Ki under setting [1] is > 5 nM.
With `N#Cc1ccc(Oc2cc(F)ccc2F)c(S(=O)(=O)N2CCN(C3CCCC3)CC2)c1` [Compound 56, 3-(4-Cyclopentylpiperazin-1-ylsulfonyl)-4-(2,5-difluorophenoxy)benzonitrile], the Ki is 25 to 100 nM under setting [1] and 25 to 100 nM under setting [2].
In the case of `CN1CCCN(S(=O)(=O)c2cc(C#N)ccc2Oc2cc(F)ccc2F)CC1` [Compound 57, 4-(2,5-Difluorophenoxy)-3-(4-methyl-1,4-diazepan-1-ylsulfonyl)benzonitrile], the Ki under setting [2] was > 5 nM.
`CN(C)C1CCN(S(=O)(=O)c2cc(C#N)ccc2Oc2cc(F)ccc2F)CC1` [Compound 59, 4-(2,5-Difluorophenoxy)-3-(4-(dimethylamino)piperidin-1-ylsulfonyl)benzonitrile]: the Ki under setting [1] is > 5 nM and the Ki under setting [2] is > 5 nM.
On to `N#Cc1ccc(Oc2cc(F)ccc2F)c(S(=O)(=O)N2CCC(N3CCCC3)CC2)c1` [Compound 60, 4-(2,5-Difluorophenoxy)-3-(4-(pyrrolidin-1-yl)piperidin-1-ylsulfonyl)benzonitrile], for which the Ki is > 5 nM under setting [1] and > 5 nM under setting [2].
Under setting [1], `O=[N+]([O-])c1ccc(Oc2cc(Cl)ccc2Cl)c(S(=O)(=O)N2CCC(N3CCCC3)CC2)c1` [Compound 61] registered a Ki of 10 to 25 nM.
Turning to `CCN(CC)CCNS(=O)(=O)c1cc(C#N)ccc1Oc1cc(F)ccc1F` [Compound 62, 5-Cyano-N-(2-(diethylamino)ethyl)-2-(2,5-difluorophenoxy)benzenesulfonamide], the Ki under setting [2] is > 5 nM.
In the case of `N#Cc1ccc(Oc2cc(F)ccc2F)c(S(=O)(=O)NCCN2CCCC2)c1` [Compound 63, 5-Cyano-2-(2,5-difluorophenoxy)-N-(2-(pyrrolidin-1-yl)ethyl)benzenesulfonamide], the Ki is > 5 nM under setting [1] and > 5 nM under setting [2].
Turning to `N#Cc1ccc(Oc2cc(F)ccc2F)c(S(=O)(=O)NCCN2CCCCC2)c1` [Compound 64, 5-Cyano-2-(2,5-difluorophenoxy)-N-(2-(piperidin-1-yl)ethyl)benzenesulfonamide], the Ki is, setting by setting: under setting [1], > 5 nM; under setting [2], > 5 nM.
Take `Cc1ccc(C)c(Sc2ccc(C#N)cc2S(=O)(=O)N2CCNCC2)c1` [Compound 65, 4-(2,5-Dimethylphenylthio)-3-(piperazin-1-ylsulfonyl)benzonitrile]: under setting [1], the Ki was > 5 nM.
As to `Cc1ccc(C)c(Sc2ccc(C#N)cc2S(=O)(=O)N2CC(C)NC(C)C2)c1` (stereo not drawn) [Compound 66, 4-(2,5-Dimethylphenylthio)-3-(3,5-dimethylpiperazin-1-ylsulfonyl)-benzonitrile], the Ki under setting [1] is ≤ 10 nM.
Turning to `Cc1ccc(C)c(Sc2ccc(C#N)cc2S(=O)(=O)N2CCN(C(C)C)CC2)c1` [Compound 67, 4-(2,5-Dimethylphenylthio)-3-(4-isopropylpiperazin-1-ylsulfonyl)benzonitrile], the Ki is 25 to 100 nM under setting [1] and 100 to 500 nM under setting [2].
Taken in the same sequence, the figures for `CCC(CC)N1CCN(S(=O)(=O)c2cc(C#N)ccc2Sc2cc(C)ccc2C)CC1` [Compound 68, 4-(2,5-Dimethylphenylthio)-3-(4-(pentan-3-yl)piperazin-1-ylsulfonyl)benzonitrile] were 25 to 100 nM and 25 to 100 nM.
Taken in the same sequence, the figures for `Cc1ccc(C)c(Sc2ccc(C#N)cc2S(=O)(=O)N2CCN(C3CCCC3)CC2)c1` [Compound 69, 3-(4-Cyclopentylpiperazin-1-ylsulfonyl)-4-(2,5-dimethylphenylthio)-benzonitrile] were 25 to 100 nM and 100 to 500 nM.
Regarding `Cc1ccc(C)c(Sc2ccc(C#N)cc2S(=O)(=O)N2CCCN(C)CC2)c1` [Compound 70, 4-(2,5-Dimethylphenylthio)-3-(4-methyl-1,4-diazepan-1-ylsulfonyl)benzonitrile], the Ki under setting [1] was 100 to 500 nM.
As to `Cc1ccc(C)c(Sc2ccc(C#N)cc2S(=O)(=O)N2CCOCC2)c1` [Compound 71, 4-(2,5-Dimethylphenylthio)-3-(morpholinosulfonyl)benzonitrile], under setting [1], the Ki was > 5 nM.
Turning to `Cc1ccc(C)c(Sc2ccc(C#N)cc2S(=O)(=O)N2CCC(N(C)C)CC2)c1` [Compound 72, 3-(4-(Dimethylamino)piperidin-1-ylsulfonyl)-4-(2,5-dimethylphenylthio)-benzonitrile], the Ki is > 5 nM under setting [1] and 25 to 100 nM under setting [2].
Regarding `CCN(CC)CCNS(=O)(=O)c1cc(C#N)ccc1Sc1cc(C)ccc1C` [Compound 73, 5-Cyano-N-(2-(diethylamino)ethyl)-2-(2,5-dimethylphenylthio)-benzenesulfonamide], the Ki under setting [2] is 25 to 100 nM.
For `Cc1ccc(C)c(Sc2ccc(C#N)cc2S(=O)(=O)N2CCC(N3CCCC3)CC2)c1` [Compound 74, 4-(2,5-Dimethylphenylthio)-3-(4-(pyrrolidin-1-yl)piperidin-1-ylsulfonyl)-benzonitrile], the Ki by setting is: under setting [1], 10 to 25 nM; under setting [2], ≤ 10 nM.
With `Cc1ccc(C)c(Sc2ccc([N+](=O)[O-])cc2S(=O)(=O)N2CCC(N3CCCC3)CC2)c1` [Compound 75, 1-(2-(2,5-Dimethylphenylthio)-5-nitrophenylsulfonyl)-4-(pyrrolidin-1-yl)piperidine], under setting [2], the Ki is ≤ 10 nM.
With `N#Cc1ccc(Sc2cc(Cl)ccc2Cl)c(S(=O)(=O)N2CCNCC2)c1` [Compound 76, 4-(2,5-Dichlorophenylthio)-3-(piperazin-1-ylsulfonyl)benzonitrile], the Ki was ≤ 10 nM under setting [1] and ≤ 10 nM under setting [2].
As to `CC(C)N1CCN(S(=O)(=O)c2cc(C#N)ccc2Sc2cc(Cl)ccc2Cl)CC1` [Compound 77, 4-(2,5-Dichlorophenylthio)-3-(4-isopropylpiperazin-1-ylsulfonyl)benzonitrile], the Ki was ≤ 10 nM under setting [1] and ≤ 10 nM under setting [2].
`CCC(CC)N1CCN(S(=O)(=O)c2cc(C#N)ccc2Sc2cc(Cl)ccc2Cl)CC1` [Compound 78, 4-(2,5-Dichlorophenylthio)-3-(4-(pentan-3-yl)piperazin-1-ylsulfonyl)-benzonitrile]: the Ki runs as follows: under setting [1], 25 to 100 nM; under setting [2], 25 to 100 nM.
In the case of `CC1CN(S(=O)(=O)c2cc(C#N)ccc2Sc2cc(Cl)ccc2Cl)CC(C)N1` (stereo not drawn) [Compound 79, 4-(2,5-Dichlorophenylthio)-3-(3,5-dimethylpiperazin-1-ylsulfonyl)benzonitrile], the Ki is, setting by setting: under setting [1], ≤ 10 nM; under setting [2], ≤ 10 nM.
Take `N#Cc1ccc(Sc2cc(Cl)ccc2Cl)c(S(=O)(=O)N2CCN(C3CCCC3)CC2)c1` [Compound 80, 3-(4-Cyclopentylpiperazin-1-ylsulfonyl)-4-(2,5-dichlorophenylthio)-benzonitrile]: the Ki reads like this: ((CO2H)2 salt) 25 to 100 nM; (EtSO3H salt) ≤ 10 nM; under setting [1], ≤ 10 nM; (H2SO4 salt) ≤ 10 nM; under setting [2], ≤ 10 nM; (HNO3 salt) 25 to 100 nM. The Ki (MeSO3H salt) was ≤ 10 nM.
On to `CN1CCCN(S(=O)(=O)c2cc(C#N)ccc2Sc2cc(Cl)ccc2Cl)CC1` [Compound 81, 4-(2,5-Dichlorophenylthio)-3-(4-methyl-1,4-diazepan-1-ylsulfonyl)-benzonitrile], for which the Ki reads like this: under setting [1], ≤ 10 nM; under setting [2], 10 to 25 nM.
Taken in the same sequence, the figures for `CN(C)C1CCN(S(=O)(=O)c2cc(C#N)ccc2Sc2cc(Cl)ccc2Cl)CC1` [Compound 83, 4-(2,5-Dichlorophenylthio)-3-(4-(dimethylamino)piperidin-1-ylsulfonyl)benzonitrile] were 25 to 100 nM and ≤ 10 nM.
Regarding `N#Cc1ccc(Sc2cc(Cl)ccc2Cl)c(S(=O)(=O)N2CCC(N3CCCC3)CC2)c1` [Compound 84, 4-(2,5-Dichlorophenylthio)-3-(4-(pyrrolidin-1-yl)piperidin-1-ylsulfonyl)benzonitrile], the Ki by setting is: under setting [1], ≤ 10 nM; under setting [2], ≤ 10 nM.
For the molecule `Cc1ccc(C)c(Sc2ccc(C#N)cc2S(=O)(=O)N2CCSCC2)c1` [Compound 85, 4-(2,5-Dimethylphenylthio)-3-(thiomorpholinosulfonyl)benzonitrile], under setting [1], the Ki is > 5 nM.
